Earlier results in patent publication US20150275302A1, “DETERMINATION OF SINGLE NUCLEOTIDE POLYMORPHISMS USEFUL TO PREDICT RESPONSE FOR RASAGILINE” (TEVA PHARMACEUTICAL INDUSTRIES, LTD., priority 2014, published 2015).

Settings: in vivo

In the case of `C#CCN[C@@H]1CCc2ccccc21` [rasagiline, R(+)-N-propargyl-l-aminoindan], the absolute bioavailability is listed as “about 36%”.
